Measurements taken from US20230272012A1, “PEPTIDES AND METHODS OF USE” (REALTA LIFE SCIENCES, INC., priority 2020, published 2023).
Entries after “also recorded” stand apart in the source; their conditions may differ. Peptide text beside a SMILES is read from it.

Assays:
complement activity = test: Hemolytic assay of plasma after IV infusion into rats; assay type: in vivo, rat; conditions: IV in Wistar rats; early time points at the highest dose
Method: (§1) Male Wistar rats with indwelling jugular catheters were administered PA-0117, -0127, -0130, and -0133 with groups of three animals receiving 20, 200 and 400 mg/kg of the compound as a single, bolus, IV infusion. A control group of rats received an infusion of saline IV. At various time points after infusion (0.5, 2, 5, 20, 60, 120, 240, 480, 1440 minute) an aliquot of blood was drawn and plasma isolated and frozen at −70° C. pending analysis. Animals were sacrificed after the terminal blood draw and a gross necropsy performed.
(§2) PA-0117 could not be analyzed as no functional complement activity was obtained from the plasma samples. […] PA-0117 was analyzed in a C1q target acquisition assay (C1q binding assay) as described in Example 1 (FIG. 9). […] PA-0127 and -0130 levels were determined by coating the plate with the plasma samples and directly detecting the peptides by rabbit antibody raised against PA-0020 (peptide sequence […]; SEQ ID NO: 57) (FIGS. 10B and 11B). […] PA-0133 could not be detected by the available antibodies.

human neutrophils = test: NETosis assay (free DNA, PicoGreen); assay type: cell-based; conditions: peptide 2 mM; neutrophils stimulated with PMA and H2O2
Method: Free DNA as a marker for NET formation was measured by PicoGreen as previously described. Briefly, 2.0×10^6 human neutrophils in 96-well plates were stimulated with 12 nM PMA and 0.05% H2O2 in RPMI with or without the indicated peptide variants (2 mM) for 2.5 hr in a 37° C. humified incubator supplemented with 5% CO2, allowing NETosis to occur. Neutrophils in RPMI alone served as a negative control. Fifty units of […] (Fisher) were added to each well to allow for digestion of released extracellular DNA for 10 min at 37° C. The preparation was then aliquoted into an adjacent well and mixed 1:1 with prepared PICO green reagent (Fisher). The fluorescence was then quantified on a BioTek microplate reader at excitation 485 nm/emission 528 nm.

[1] = assay type: in vivo, rat; conditions: IV in Wistar rats, 20, 200, 400 mg/kg; 0.5-1440 minute
Method: as §1, §2
PA-0117: The hemolysis assay results were not useable (few pre-bleeds had any activity, and only a few other random samples had any complement activity). The PK assay for PA-0117 was performed by sandwich ELISA (FIG. 9). PA-0127: The results of the hemolysis assay are discussed herein (see also FIG. 10A). […] PA-0130: The results of the hemolysis assay are discussed herein (see also FIG. 11A). […] PA-0133: The results of the hemolysis assay are discussed herein (FIG. 12).

[2] = ABO incompatibility hemolytic assay of complement activity (CH50-type); assay type: cell-based, human; conditions: peptide 0.8 mg/ml (~0.5 mM); read-out: decrease of ABO hemolysis compared to PA-I8Sar
Method: FIG. 1A-1B show PIC1 peptides' inhibition of complement activation in an ABO incompatibility assay. […] Inhibition of ABO incompatibility hemolysis in a CH50-type assay. Peptides are at a final concentration of 0.5 mM. Values are represented as a percent of the positive control, which consists of human O sera and AB red blood cells in GVBS^++ buffer. Data are the means of n=3 independent experiments±SEM.
For hemolytic complement assays, human red blood cells (RBCs) from type AB donors were purified, washed, and standardized to 1.0×10^9 cells/ml, as previously described. Human sera from type O donors at a 15% final concentration was combined with 0.5 mM of the peptides and the volume was brought up to 0.2 ml with GVBS^++ and 5.0×10^7 RBCs. The samples were incubated for 1 hour at 37° C. and then spun at 3,000 rpm for 5 minutes and the supernatant was collected and read at 412 nm. Values are represented as a percent of the positive control, which consists of human O sera and AB red blood cells in GVBS^++ buffer.
To assess the extent to which the peptide variants inhibit antibody-initiated complement activation, an ABO incompatibility ex vivo assay was utilized in which purified erythrocytes from a ‘type AB+’ donor are incubated with sera from a ‘type O’ subject containing anti-A and anti-B antibodies. Peptides were tested at a concentration of 0.8 mg/ml (˜0.5 mM). […] D-amino acid variants PA-0127 and PA-0133 decreased ABO hemolysis by 20% (P value=0.083) and 25% (P value=0.076), respectively. […]

[3] = test system: purified human Pan T-cells; test: T-cell exhaustion protocol (Dynabeads re-stimulation); assay type: cell-based; conditions: peptides 2 mg/ml at each stimulation
Method: Purified human pan-T-cells were subject to stimulation with Dynabeads every 48 hours over the period of 8 days with cells also receiving PIC1 peptides (2 mg/ml) at each stimulation. Cells not receiving Dynabeads were run in parallel to assess background levels of Caspase 3/7 signal. At the eighth day, cells were harvested and the levels of Caspase 3/7 determined by ELISA.
Purified human pan-T-cells were subject to stimulation with Dynabeads every 48 hours over the period of 8 days with cells also receiving PIC1 peptides (2 mg/ml) at each stimulation. Cell supernatants were collected at each stimulation and levels of IL-2 and IFN-gamma assayed by ELISA.
T-cell exhaustion is a form of T-cell dysfunction that occurs in cancer. It is defined by poor effector function, reduction in cytokine release (e.g., IL-2, TNF-alpha, IFN-gamma), sustained expression of inhibitory receptors (e.g., PD-1, LAG-3, CD244, CD160) with the progressive loss of effector function due to overstimulation. Exhaustion prevents optimal control of tumor growth. Exhausted T cells are prevalent in the tumor microenvironment (TME) and can lead to T-cell apoptosis. T-cell exhaustion is reversible, and pharmaceutical inhibition of T-cell exhaustion has been considered a promising strategy by many cancer researchers. To ascertain if PIC1 peptides could reverse T-cell exhaustion and increase T cell viability and effector function, a T-cell exhaustion protocol was developed. To induce T-cell exhaustion, purified human Pan T-cells were stimulated with T-Activator CD3/CD28 Dynabeads and cells are washed and re-stimulated every 48 hours. PIC1 peptides were added to the cells after each stimulation with Dynabeads. After three to four stimulations cells were harvested for readouts which consisted of assessing T-cell apoptosis by measuring Caspase 3/7 levels and production of cytokines IL-2 and IFN-gamma which is indicative of T-cell functionality. […] To further evaluate if PIC1 peptides could restore T-cell functionality in cells that have undergone the exhaustion protocol, the inventors next assessed production of cytokines IL-2 and IFN-gamma. Supernatants from the cells after each stimulation were collected and the cytokines measured by ELISA. […] The lower level of IFN-gamma signal compared to IL-2 was consistently seen in this assay.

CTLA-4 = molecular target: T1, CTLA-4 (Homo sapiens, UniProt P16410); test: CTLA-4 Blockade Bioassay (Promega); assay type: cell-based; design: host or cells: Jurkat T cells (CTLA-4 effector cells); aAPC/Raji cells; conditions: increasing concentrations; listed as RLS-0130
T1 sequence (P16410 36-223): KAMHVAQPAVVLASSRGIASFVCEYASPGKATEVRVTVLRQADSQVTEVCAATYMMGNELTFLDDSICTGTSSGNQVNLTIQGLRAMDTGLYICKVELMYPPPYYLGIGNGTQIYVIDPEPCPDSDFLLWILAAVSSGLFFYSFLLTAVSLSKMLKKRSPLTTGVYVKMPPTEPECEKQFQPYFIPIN
Method: CTLA-4 effector cells were incubated with aAPC/Raji Cells in the absence or presence of increasing concentrations of anti-CTLA-4 antibody (positive control), RLS-0127*, RLS-0130, RLS-0156, RLS-0170 and RLS-0174. Luminescence was detected in luminometer plate reader.
To assess if PIC1 peptides could block CTLA-4 inhibitory activity in a cell-based assay, select peptides were screened in the CTLA-4 Blockade Bioassay (Promega). This bioluminescent cell-based assay is used to measure the potency and stability of molecules targeting CTLA-4 and consists of two genetically engineered cell lines: CTLA-4 effector cells: Jurkat T cells expressing human CTLA-4 and a luciferase reporter driven by a native promoter which responds to TCR/CD28 activation and aAPC/Raji Cells: Raji cells expressing an engineered cell surface protein designed to activate cognate TCRs in an antigen-independent manner and endogenously expressing CTLA-4 ligands CD80 and CD86. When the two cell types are co-cultured, CTLA-4 competes with CD28 for their shared ligands, CD80 and CD86 and thus inhibits CD28 pathway activation and promoter-mediated luminescence. Addition of a molecule that blocks the interaction of CTLA-4 with its ligands CD80 and CD86 results in promoter-mediated luminescence.

PD-1/PD-L1 interaction = molecular target: T2, PD-1/PD-L1 interaction (Homo sapiens, UniProt Q15116+Q9NZQ7); test: PD-1/PD-L1 Blockade Bioassay (Promega); assay type: cell-based; conditions: increasing peptide concentrations
T2 construct: host or cells: PD-1 effector cells; PD-L1 aAPC/CHO-K1 cells
T2 sequence (Q15116 25-288): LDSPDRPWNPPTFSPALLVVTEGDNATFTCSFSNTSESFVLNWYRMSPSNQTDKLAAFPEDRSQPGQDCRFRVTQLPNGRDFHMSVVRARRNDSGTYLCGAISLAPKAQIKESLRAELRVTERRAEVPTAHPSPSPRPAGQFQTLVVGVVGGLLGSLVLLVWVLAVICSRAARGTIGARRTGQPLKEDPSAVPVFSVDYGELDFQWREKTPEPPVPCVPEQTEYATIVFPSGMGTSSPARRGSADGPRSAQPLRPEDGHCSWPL
T2 sequence (Q9NZQ7 19-290): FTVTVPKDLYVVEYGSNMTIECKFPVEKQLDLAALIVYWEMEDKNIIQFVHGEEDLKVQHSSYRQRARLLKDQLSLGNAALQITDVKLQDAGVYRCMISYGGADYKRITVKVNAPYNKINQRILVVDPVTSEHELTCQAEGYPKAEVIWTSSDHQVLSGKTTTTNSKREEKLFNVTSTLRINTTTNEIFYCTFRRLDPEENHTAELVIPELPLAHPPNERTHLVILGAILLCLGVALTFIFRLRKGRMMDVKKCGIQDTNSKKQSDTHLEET
Method: PD-1 effector cells were incubated with PD1-L1 aAPC cells in the absence or presence of increasing concentrations of anti-PD-1 antibody (positive control) and select PIC1 peptides. Luminescence was detected in luminometer plate reader.
To assess if PIC1 peptides could block PD-1 inhibitory activity in a cell-based assay, select peptides were screened in the PD-1/PD-L1 Blockade Bioassay (Promega). The PD-1/PD-L1 Blockade Bioassay is a biologically relevant MOA-based assay that can be used to measure the potency and stability of antibodies and other biologics designed to block the PD-1/PD-L1 interaction. This bioluminescent cell-based assay is used to measure the potency and stability of molecules targeting PD-1 and consists of two genetically engineered cell lines: aAPC/CHO-K1 Cells are CHO-K1 cells with an engineered cell surface protein designed to activate cognate TCRs in an antigen-independent manner. When the two cell types are co-cultured, the PD-1/PD-L1 interaction inhibits TCR signaling and NFAT-mediated luciferase activity. Addition of an inhibitory molecule that blocks either PD-1 or PD-L1 releases the inhibitory signal and results in TCR signaling and NFAT-mediated luciferase activity.

[4] = as described in U.S. Pat. No. 10,005,818; cited from earlier work

Molecule | inhibition of complement activity in the hemolytic assay of rat plasma (complement activity) | reduction of free DNA (marker of NETosis) (human neutrophils) | peptide level in plasma over time [1] | decrease in ABO hemolysis compared to reference peptide [2] | Caspase 3/7 levels ([3]; eighth day) | IL-2 signal at stimulation 2 ([3]; supernatant ELISA) | inhibitory activity in CTLA-4 blockade bioassay (luminescence) (CTLA-4) | inhibition of PD-1/PD-L1 inhibitory signaling (luminescence) (PD-1/PD-L1 interaction) | water solubility without PEGylation [4]
CC[C@H](C)[C@H](N)C(=O)N[C@@H](C)C(=O)N[C@@H](CC(C)C)C(=O)N[C@H](C(=O)N[C@@H](CC(C)C)C(=O)N[C@@H](CCC(=O)O)C(=O)N1CCC[C@H]1C(=O)N(C)CC(=O)N[C@H](CS)C(=O)N[C@@H](CS)C(=O)N[C@@H](CCC(N)=O)C(=O)N[C@@H](CCC(=O)O)C(=O)N[C@@H](CCCNC(=N)N)C(=O)N[C@@H](C)C(=O)N[C@@H](C)C(=O)O)[C@@H](C)CC [PA-0127, IALILEP(Sar)dCCQERAA] (HELM PEPTIDE1{I.A.L.I.L.E.P.[Sar].[dC].C.Q.E.R.A.A}$$$$V2.0) | inhibition of complement activity | did not reduce levels of free DNA; also recorded: did not show a reduction in free DNA | increased binding was observed at early time points with diminished signal at later time points | 20% |  |  |  |  | 
CC[C@H](C)[C@H](N)C(=O)N[C@@H](C)C(=O)N[C@@H](CC(C)C)C(=O)N[C@H](C(=O)N[C@@H](CC(C)C)C(=O)N[C@@H](CCC(=O)O)C(=O)N1CCC[C@H]1C(=O)N(C)CC(=O)N[C@@H](CS)C(=O)N[C@@H](CS)C(=O)N[C@@H](CCC(N)=O)C(=O)N[C@H](CCC(=O)O)C(=O)N[C@@H](CCCNC(=N)N)C(=O)N[C@@H](C)C(=O)N[C@@H](C)C(=O)O)[C@@H](C)CC [PA-0130, IALILEP(Sar)CCQdERAA] (HELM PEPTIDE1{I.A.L.I.L.E.P.[Sar].C.C.Q.[dE].R.A.A}$$$$V2.0) | inhibition of complement activity | reduction in free DNA similar to that of the PA-I8Sar control; also recorded: ability to inhibit NET formation | increased binding was observed at early time points with diminished signal at later time points |  | very low to undetectable levels of Caspase 3/7 | showed an IL-2 signal at stimulation 2 | showed inhibitory activity; also recorded: able to inhibit CTLA-4 mediated cell signaling | did not show PD-1/PD-L1 inhibitory activity | 
IALILEP(Sar)CCQERAA (IALILEPXCCQERAA; sarcosine at position 8; MOD_RES (8)..(8) Sarcosine) [PA-0088, reference compound] |  | reduced the level of free DNA |  |  |  |  |  |  | water soluble without PEGylation
IALILEPI(Sar)CQERAA (IALILEPIXCQERAA; sarcosine at position 9; MOD_RES (9)..(9) Sarcosine) [PA-0089] |  |  |  |  |  |  |  |  | water soluble without PEGylation
